From patent US7576217B2, “Quinolines as allosteric enhancers of the GABAB receptors” (Hoffman-La Roche Inc., priority 2004, dated 2009)
Like-named read-outs stand apart in the source and are kept apart here.

Tests used:
[1] = PO, cited from earlier work
[2] = rats; cited from earlier work
[3] = molecular target: T1, human GABABR1aR2a (Homo sapiens, UniProt O75899+Q9UBS5); experiment: Intracellular Ca2+ mobilization assay in CHO-GABABR1aR2a-Gα16 cell (FLIPR); format: cell-based; conditions: for GABA shift Log [EC50(GABA + 10 μM cp)/EC50(GABA alone)]: GABA 0.0003-30 μM with and without 10 μM enhancer; for Emax: enhancer 0.001-30 μM in presence of 10 nM GABA (EC10), applied 15 min before GABA, read-out: Emax (%) at 10 nM GABA alone = 0% 10 μM GABA alone = 100%; for EC50: enhancer concentration-response in presence of 10 nM GABA (EC10)
T1 construct: expressed in transfected cells
Method: Intracellular Ca^2+ Mobilization Assay
The Chinese Hamster Ovary (CHO) cells stably expressing human GABABR1aR2a and Gα16 were seeded at 5×10^4 cells/well in the poly-D-lysine treated, 96-well, black/clear-bottomed plates (BD Biosciences, Palo Alto, Calif.). 24 h later, the cells were loaded for 90 min at 37° C. with 4 μM Flou-4 acetoxymethyl ester (Catalog No. F-14202, Molecular Probes, Eugene, Oreg.) in loading buffer (1×HBSS, 20 mM HEPES, 2.5 mM Probenecid). Hanks' Balanced Salt Solution (HBSS) (10×) (catalog No. 14065-049) and HEPES (1M) (catalog No. 15630-056) were purchased from Invitrogen, Carlsbad, Calif. Probenecid (250 mM) (catalog No. P8761) was from Sigma, Buchs, Switzerland. The cells were washed five times with loading buffer to remove excess dye and intracellular calcium mobilization, [Ca^2+]i were measured using a Fluorometric Imaging Plate Reader (FLIPR, Molecular Devices, Menlo Park, Calif.) as described previously (Porter et al., Br. J. Pharmacol., 128, 13-20, 1999). The enhancers were applied 15 min before the application of the GABA. For GABA shift assay, concentration-response curves of GABA (0.0003-30 μM) were determined in the absence and presence of […] enhancer. The GABA-shift is defined as Log [EC50 (GABA+10 μM enhancer)/EC50 (GABA alone)]. The % maximum enhancing effect (% Emax) and potency (EC50 value) of each enhancer was determined from concentration-response curve of the enhancer (0.001-30 μM) in the presence of 10 nM GABA (EC10). Responses were measured as peak increase in fluorescence minus basal, normalized to the maximal stimulatory effect induced by 10 μM GABA alone (considered 100%) and 10 nM GABA alone (considered 0%). The data were fitted with the equation Y=100+(Max−100)/(1+(EC50/[drug])^n) where Max is the maximum effect, EC50 the concentration eliciting a half-maximum effect and n the Hill slope.

[4] = cited from earlier work

T1 sequence (Q9UBS5 15-961 limits assumed): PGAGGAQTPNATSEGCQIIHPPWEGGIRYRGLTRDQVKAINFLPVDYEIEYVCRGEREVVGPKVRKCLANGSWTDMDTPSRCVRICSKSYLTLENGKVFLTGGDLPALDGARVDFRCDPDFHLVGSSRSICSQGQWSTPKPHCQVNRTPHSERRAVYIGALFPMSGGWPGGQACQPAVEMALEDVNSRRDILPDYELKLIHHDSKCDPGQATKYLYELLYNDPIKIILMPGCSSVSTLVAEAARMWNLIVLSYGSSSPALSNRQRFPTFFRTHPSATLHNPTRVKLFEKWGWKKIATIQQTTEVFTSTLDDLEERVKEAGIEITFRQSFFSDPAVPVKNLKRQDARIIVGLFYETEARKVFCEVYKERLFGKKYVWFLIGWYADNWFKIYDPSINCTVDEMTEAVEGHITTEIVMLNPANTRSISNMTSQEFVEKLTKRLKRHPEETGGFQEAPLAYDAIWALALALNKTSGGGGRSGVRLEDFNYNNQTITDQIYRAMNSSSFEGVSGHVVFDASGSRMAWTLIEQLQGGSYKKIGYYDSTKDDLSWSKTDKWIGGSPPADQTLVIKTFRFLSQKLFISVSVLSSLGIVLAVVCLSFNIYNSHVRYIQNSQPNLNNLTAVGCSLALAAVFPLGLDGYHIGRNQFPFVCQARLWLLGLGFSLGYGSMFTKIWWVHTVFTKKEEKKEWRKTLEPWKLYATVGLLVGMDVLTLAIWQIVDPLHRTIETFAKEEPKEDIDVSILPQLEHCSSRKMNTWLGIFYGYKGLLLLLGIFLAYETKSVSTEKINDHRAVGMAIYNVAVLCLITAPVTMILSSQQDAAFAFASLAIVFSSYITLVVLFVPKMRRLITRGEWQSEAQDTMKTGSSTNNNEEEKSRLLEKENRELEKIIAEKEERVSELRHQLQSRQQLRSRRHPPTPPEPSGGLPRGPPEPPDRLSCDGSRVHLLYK
T1 sequence (O75899 42-941): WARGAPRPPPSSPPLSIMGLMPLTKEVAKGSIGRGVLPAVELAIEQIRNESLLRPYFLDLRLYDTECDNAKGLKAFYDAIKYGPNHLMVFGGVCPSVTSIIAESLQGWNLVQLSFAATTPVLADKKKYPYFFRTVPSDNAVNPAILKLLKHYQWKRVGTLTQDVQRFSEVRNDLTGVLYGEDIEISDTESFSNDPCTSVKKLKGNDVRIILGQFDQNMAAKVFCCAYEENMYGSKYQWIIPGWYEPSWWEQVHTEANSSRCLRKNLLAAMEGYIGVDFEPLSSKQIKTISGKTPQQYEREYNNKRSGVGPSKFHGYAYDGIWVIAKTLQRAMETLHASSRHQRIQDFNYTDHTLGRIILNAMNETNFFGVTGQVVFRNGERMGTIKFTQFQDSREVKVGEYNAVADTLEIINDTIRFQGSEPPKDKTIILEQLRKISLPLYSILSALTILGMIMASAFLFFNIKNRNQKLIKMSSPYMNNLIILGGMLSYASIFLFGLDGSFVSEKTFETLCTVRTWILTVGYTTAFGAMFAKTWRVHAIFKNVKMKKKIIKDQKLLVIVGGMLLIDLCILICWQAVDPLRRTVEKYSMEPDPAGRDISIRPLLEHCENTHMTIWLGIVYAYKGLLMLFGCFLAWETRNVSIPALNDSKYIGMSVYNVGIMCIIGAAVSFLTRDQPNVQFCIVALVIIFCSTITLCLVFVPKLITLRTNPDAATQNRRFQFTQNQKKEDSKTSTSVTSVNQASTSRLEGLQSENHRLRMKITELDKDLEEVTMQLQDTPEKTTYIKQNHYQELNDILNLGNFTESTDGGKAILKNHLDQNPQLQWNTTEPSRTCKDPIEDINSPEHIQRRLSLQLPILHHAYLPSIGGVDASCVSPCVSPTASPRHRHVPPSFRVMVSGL

SMILES	GABA shift Log [EC50(GABA + 10 μM cp)/EC50(GABA alone)] [3]	Emax [3]	EC50 [3]	other results
NCC(CC(=O)O)c1ccc(Cl)cc1 (stereo not drawn) [Baclofen, β-chlorophenyl GABA]				effect on spontaneous locomotor activity, rotarod, body temperature and traction test ([1]; 2.5-15 mg/kg): showed these side effects
CC(C)(CO)Cc1cc(C(C)(C)C)c(O)c(C(C)(C)C)c1 [CGP7930, 2,6-di-tert-butyl-4-(3-hydroxy-2,2-dimethyl-propyl)-phenol]				decreasing cocaine self-administration [2]: effective
Cc1nc2ccc(Br)cc2c(-c2ccccc2)c1C(=O)C(F)(F)F [Example 3, 1-(6-Bromo-2-methyl-4-phenyl-quinolin-3-yl)-2,2,2-trifluoro-ethanone]	−1.20	124%	0.8 µM	
Cc1nc2ccc(OC(F)(F)F)cc2c(-c2ccccc2)c1C(=O)C(F)(F)F [Example 11, 2,2,2-Trifluoro-1-(2-methyl-4-phenyl-6-trifluoromethoxy-quinolin-3-yl)-ethanone]	−1.00	65%	0.8 µM	
CC(=O)c1c(C)nc2ccc(OC(F)(F)F)cc2c1-c1cccc(Cl)c1 [Example 15, 1-[4-(3-Chloro-phenyl)-2-methyl-6-trifluoromethoxy-quinolin-3-yl]-ethanone]	−1.15	67%	1.6 µM	
Cc1nc2cc3c(cc2c(-c2ccccc2)c1C(=O)C(F)(F)F)OC(F)(F)O3 [Example 19, 1-(2,2-Difluoro-6-methyl-8-phenyl-[1,3]dioxolo[4,5-g]quinolin-7-yl)-2,2,2-trifluoro-ethanone]	−0.70	63%	0.9 µM	
Cc1nc2ccc(N3CCCCC3)cc2c(-c2ccc(F)cc2)c1C(=O)C(F)(F)F [Example 33, 2,2,2-Trifluoro-1-[4-(4-fluoro-phenyl)-2-methyl-6-piperidin-1-yl-quinolin-3-yl]-ethanone]	−0.90	62%	0.33 µM	
Cc1nc2ccc(Br)cc2c(-c2ccc(F)cc2)c1C(=O)C1CC1 [Example 56, [6-Bromo-4-(4-fluoro-phenyl)-2-methyl-quinolin-3-yl]-cyclopropyl-methanone]	−0.90	58%	2.2 µM	
CSc1nc(NC2CCCC2)c([N+](=O)[O-])c(NC2CCCC2)n1 [GS39783, N,N_-dicyclopentyl-2-methylsulfanyl-5-nitro-pyrimidine-4,6-diamine]				tolerance after chronic treatment ([4]; 21 days, 10 mg/kg, P.O., once daily): No tolerance; anxiolytic-like effects ([4]; elevated plus maze (rat), elevated zero maze (mice and rats), stress-induced hyperthermia (mice)): exhibited anxiolytic-like effects; effect on spontaneous locomotor activity, rotarod, body temperature and traction test ([1]; 0.1-200 mg/kg): had no effect; decreasing cocaine self-administration [2]: effective
